The values that follow come from US9198900B2, “Treatment of peritoneal injury using JAK inhibitors” (Los Angeles Biomedical Research Institute at Harbor-UCLA …, priority 2011, dated 2015).

For assay [1], the system named is human peritoneal mesothelial cells. To be noted: cultured human peritoneal mesothelial cells; cited from earlier work.
Another assay concerns JAK/STAT signaling. Put plainly: Mesothelial cell exposure to heated PDF in vitro (immunoblot). The format is cell-based, human. As for the experimental part:
Mesothelial cell exposure to heated PDF in vitro activated JAK/STAT signaling and induced the STAT-associated protein periostin. Heat-sterilization of PDF generates GDPs. A commercially available immortalized human mesothelial cell line was cultured in standard medium, then switched to control medium or heat-sterilized PDF (30:70, medium:PDF)×4 hrs. Heated PDF induced STAT1 phosphorylation, and the pan-JAKi P6 attenuated this (immunoblot doublet, FIG. 1A). After 24 hrs, P6 also attenuated the secretion of the injurious STAT-associated protein periostin into the medium (immunoblot triplet, FIG. 1B). Five characteristics of periostin make it an attractive marker of Pbarrier injury. 1) Periostin is a marker and mediator for the adoption of a mesenchymal phenotype by injured or transformed epithelial cells^73-75. 2) It participates in fibrous healing^76. Others show periostin in the Pbarrier of patients with fibrosis and encapsulating peritoneal sclerosis (Braun et al, ASN poster, 2011). 3) Periostin supports neovascularization^77. 4) It has a bidirectional regulatory relationship with TGF-β^78. 5) It's promoter region has STAT1 and 5 binding sites (www|.|sabiosciences|.|com/chipqpersearch.php?species_id=0&nfactor=n&ninfo=n&ngene=n&B2=Search&src=genecard&factor=Over+200+TF&gene=POSTN). Thus, we can use periostin to affirm JAK/STAT signaling and mesothelial dedifferentiation.
(Immunoblotting shows a protein as a band on a membrane.)

The subject of another assay is peritoneal membrane. Put plainly: Rat PD with 4.25% Dianeal (biPDF), peritoneal histology. It is filed as in vivo. To be noted: rats undergoing PD with bioincompatible PDF (biPDF), compared to placebo. The text has this:
In rats, 10 days of PD with 4.25% Dianeal induced mesothelial cell reactive hyperplasia, fibrosis, inflammation, and JAK1 phosphorylation, all of which are attenuated by a JAK1/2 inhibitor. Visceral and parietal peritoneum respond to biPDF differently^33, 88, so only like tissues were compared across treatments.

For a further assay, the system named is Met-5A cells. Put plainly: Cleaved caspase-3 Western blot after exposure to peritoneal dialysis fluid. The format is cell-based. To be noted: 250 nM P6, 24 h; heated PDF, F-PDF, Low GDP-FPDF; FIG. 5N. The protocol: Methods: Met-5A cells were incubated with heated peritoneal dialysis fluid (PDF), filtered (F-PDF) and Low GDP-FPDF with or without 250 nM JAK inhibitor (Jaki) P6, and cells were harvested at 24 h for measuring cleaved caspase-3 by Western blot as an indication of cell death. 100 μg of cell lysate was separated on a 8-16% SDS polyacrylamide gel. Proteins were transferred onto a nitrocellulose membrane, blocked with 5% BSA in TBST and incubated with primary anti-cleaved caspase-3 antibody (1; 1000, Cell Signaling) overnight. After incubation with a HRP conjugated anti-rabbit antibody (1:1500, GE Healthcare UK Ltd, Piscataway, N.J.), protein bands were visualized by chemiluminiscence (Thermo Scientific). GAPDH serves as an internal control.

Consider `N#C/C(=C\c1ccc(O)c(O)c1)C(=O)NCc1ccccc1` [AG-490], for which the “leptin-induced TGFβ synthesis” value in assay [1] is listed as “abolished”.
`CC(C)(C)c1nc2c3cc[nH]c(=O)c3c3cc(F)ccc3c2[nH]1` [P6]: the “secretion of the STAT-associated protein periostin into the medium” value in the assay on JAK/STAT signaling (heated PDF, after 24 hrs, FIG. 1B) is given as “attenuated”. Further, in the assay on JAK/STAT signaling (immortalized human mesothelial cell line, heat-sterilized PDF (30:70, medium:PDF) x 4 hrs, FIG. 1A), the “STAT1 phosphorylation induced by heated PDF” value is on record as “attenuated”. Moreover, in the assay with peritoneal membrane, the “structural integrity of the peritoneal membrane” value is listed as “preserved”. Moreover, the “caspase-3 cleavage induced by PDF (indication of cell death)” value with Met-5A cells is listed as “reduced”.
